# Data: US5401769A, “Dibenzofuranyl N-alkyl carbamates” (priority 1994, dated 1995)
# How the values were obtained:
# [1] = target: T1, cholesterol ester hydrolase (CEH) / cholesterol esterase (EC 3.1.1.13) (Bos taurus, UniProt P30122); test: In vitro inhibition of cholesteryl ester formation by cholesterol esterase (CEH); assay type: biochemical, bovine
# T1 construct: purchased Sigma Company, St. Louis, Mo., U.S.A. C-1892; host or cells: bovine pancreas
# T1 sequence (P30122 19-597): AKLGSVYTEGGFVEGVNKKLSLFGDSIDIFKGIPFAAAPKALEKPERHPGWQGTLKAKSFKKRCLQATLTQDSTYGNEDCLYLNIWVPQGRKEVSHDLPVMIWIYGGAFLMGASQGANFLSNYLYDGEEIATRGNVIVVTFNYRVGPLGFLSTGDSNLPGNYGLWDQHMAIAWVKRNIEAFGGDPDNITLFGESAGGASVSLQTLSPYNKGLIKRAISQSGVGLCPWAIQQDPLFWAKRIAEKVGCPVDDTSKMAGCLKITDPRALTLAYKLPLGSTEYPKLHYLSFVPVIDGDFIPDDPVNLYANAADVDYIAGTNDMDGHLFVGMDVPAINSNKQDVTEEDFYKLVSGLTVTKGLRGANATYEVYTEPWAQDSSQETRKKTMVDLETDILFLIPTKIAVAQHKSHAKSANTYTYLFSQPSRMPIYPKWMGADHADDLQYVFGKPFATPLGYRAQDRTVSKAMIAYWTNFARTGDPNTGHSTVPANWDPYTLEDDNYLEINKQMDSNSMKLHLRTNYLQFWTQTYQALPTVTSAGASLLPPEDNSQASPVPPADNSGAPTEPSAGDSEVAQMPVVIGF
# Excerpt: (§1) The in vitro and in vivo standard experimental test procedures used to establish the ability of the anticholesterolemic compounds of this invention to prevent cholesteryl ester formation and to inhibit cholesterol absorption, are given below and the biological results are presented in Table I.
# In Vitro Test Procedure: The ability of the compounds of this invention to inhibit the formation of cholesteryl esters and thereby interfere with and prevent assimilation of cholesterol into the lymphatic system and ultimately the blood stream was established by incubating the compounds at 37° C. with a mixture of cholesterol and oleic acid in the presence of buffered cholesterol esterase [(EC 3.1.1.13) Sigma Company, St. Louis, Mo., U.S.A., No. C-1892, from bovine pancreas] and measuring the amount of ester formed, according to the procedure of Field, J. of Lipid Research, 25, 389 (1984).
# [2] = system: absorption of 14C-cholesterol; test: In vivo cholesterol absorption, [4-14C] cholesterol, serum radioactivity at six hours, normal rats; details: 10 mg/kg oral, 6 hr, normal rat, percent decrease compared to control
# Experimental: as §1
# In Vivo Assay: The in vivo cholesterol absorption studies were conducted in normal rats by oral administration of the compound being tested in propylene glycol and olive oil followed by oral administration of [4-^14 C] cholesterol in propylene glycol and olive oil, otherwise following the procedure of Cayen et al., J. Lipid Res. 20, 162 (1979). The serum radioactivity was measured at six hours after dosing. The results of this study are reported in the following Table I as percent decrease compared to control.
SMILES,IC50 [1] [µM],"In Vivo Results Effect on Absorption of 14C-chol, % Decrease [2] [%]","IC25 ([1]; IC25 printed in the IC50 column, 37° C., cholesterol and oleic acid, cholesterol esterase from bovine pancreas) [µM]"
"CCCCNC(=O)Oc1ccc2oc3ccccc3c2c1 [Example 1, Butylcarbamic acid 2-dibenzofuranyl ester]",25,,
"CC(C)CCCC(C)NC(=O)Oc1ccc2oc3ccccc3c2c1 (centres unmarked) [Example 2, (1.5-Dimethylhexyl) carbamic acid 2-dibenzofuranyl ester]",3,33,
"CCCCCCNC(=O)Oc1ccc2oc3ccccc3c2c1 [Example 3, Hexylcarbamic acid 2-dibenzofuranyl ester]",9.3,37,
"O=C(NCCCCc1ccccc1)Oc1ccc2oc3ccccc3c2c1 [Example 4, (4-Phenylbutyl)carbamic acid 2-dibenzofuranyl ester]",68,44,
"CNC(=O)Oc1ccc2oc3ccccc3c2c1 [Example 5, Methylcarbamic acid 2-dibenzofuranyl ester]",42,,
"O=C(NCC1CCCCC1)Oc1ccc2oc3ccccc3c2c1 [Example 6, (Cyclohexylmethyl)carbamic acid 2-dibenzofuranyl ester]",13.8,43,
"CCCCCCCCCCCCNC(=O)Oc1ccc2oc3ccccc3c2c1 [Example 7, Dodecylcarbamic acid 2-dibenzofuranyl ester]",,13,7.2
"CCNC(=O)Oc1ccc2oc3ccccc3c2c1 [Example 8, Ethylcarbamic acid 2-dibenzofuranyl ester]",18.9,18,
